Like-named read-outs stand apart in the source and are kept apart here.
Legend:
[1] = molecular target: T1, recombinant soluble tissue factor and recombinant human factor VIIa (TF-VIIa) (Homo sapiens, UniProt P08709); assay: TF-VIIa Assay; assay type: biochemical; conditions: for IC50: read-out: IC50 TF-VIIa
T1 construct: conversion of coagulation factor VII to VIIa by Xa; purchased American Diagnostica, Greenwich Conn; host or cells: VIIa purchased; soluble TF made in house in E. coli

Human factor Xa = Human factor Xa (Homo sapiens, UniProt P00742); assay: Xa Assay; assay type: biochemical; design: purchased Enzyme Research Laboratories, South Bend Ind; conditions: for % Inhibition Factor Xa at 100 μM / inhibition at 100 µM: at 100 μM inhibitor
Human factor Xa, sequence (P00742 41-179 limits assumed): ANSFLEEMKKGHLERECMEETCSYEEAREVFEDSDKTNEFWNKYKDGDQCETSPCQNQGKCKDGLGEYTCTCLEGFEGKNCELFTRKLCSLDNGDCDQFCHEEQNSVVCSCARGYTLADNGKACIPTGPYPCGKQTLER
Human factor Xa, sequence (P00742 235-488 limits assumed): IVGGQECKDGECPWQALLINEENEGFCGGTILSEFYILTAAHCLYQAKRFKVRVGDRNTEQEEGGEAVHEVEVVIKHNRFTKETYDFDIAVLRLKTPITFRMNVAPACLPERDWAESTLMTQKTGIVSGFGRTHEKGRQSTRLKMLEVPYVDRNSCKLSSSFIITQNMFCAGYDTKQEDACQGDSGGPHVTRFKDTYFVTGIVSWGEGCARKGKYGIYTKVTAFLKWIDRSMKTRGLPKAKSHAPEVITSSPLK

T1 sequence (P08709 61-212 limits assumed): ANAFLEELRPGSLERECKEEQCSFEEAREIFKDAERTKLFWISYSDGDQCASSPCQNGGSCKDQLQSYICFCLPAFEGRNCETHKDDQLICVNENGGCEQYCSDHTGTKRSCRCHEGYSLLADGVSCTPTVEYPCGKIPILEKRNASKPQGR
T1 sequence (P08709 213-466 limits assumed): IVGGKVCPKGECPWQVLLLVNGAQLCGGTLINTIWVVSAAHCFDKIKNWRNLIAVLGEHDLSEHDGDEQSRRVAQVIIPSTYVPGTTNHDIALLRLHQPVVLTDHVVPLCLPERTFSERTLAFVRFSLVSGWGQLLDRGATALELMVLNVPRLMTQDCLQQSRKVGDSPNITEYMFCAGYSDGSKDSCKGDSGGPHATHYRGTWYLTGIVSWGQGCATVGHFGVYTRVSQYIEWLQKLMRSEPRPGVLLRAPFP
T1 sequence (P13726 33-251 partner limits assumed): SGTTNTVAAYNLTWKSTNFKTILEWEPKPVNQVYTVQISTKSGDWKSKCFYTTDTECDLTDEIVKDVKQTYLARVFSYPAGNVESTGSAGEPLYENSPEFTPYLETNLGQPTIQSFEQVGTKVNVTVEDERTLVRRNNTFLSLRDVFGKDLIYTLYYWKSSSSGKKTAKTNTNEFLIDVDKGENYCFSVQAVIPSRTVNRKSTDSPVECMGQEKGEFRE

SMILES | % Inhibition TF-VIIa (100 µM) ([1]; inhibitor at 100 µM) [%] | % Inhibition Factor Xa (100 µM) (Human factor Xa; inhibitor at 100 µM) [%] | also measured
Nc1cccc(-c2c(Cl)nc(NC3CCC3)c(=O)n2CC(=O)NCc2ccccc2)c1 [Example 99] |  |  | % Inhibition TF-VIIa (30 µM) ([1]; at 30 µM inhibitor): 6% @ 30; % Inhibition Factor Xa (30 µM) (Human factor Xa; at 30 µM inhibitor): 8% @ 30
COc1ccc(-c2c(Cl)nc(NCCc3cccnc3)c(=O)n2CC(=O)NCc2ccc(C(=N)N)cc2)cc1 [1471-40] |  |  | % Inhibition TF-VIIa (30 µM) ([1]; at 30 µM inhibitor): 40%; % Inhibition Factor Xa (30 µM) (Human factor Xa; at 30 µM inhibitor): 11%
O=C(Cn1c(-c2ccc(-c3ccccc3)cc2)c(Cl)nc(NCCc2cccnc2)c1=O)NCCc1ccncc1 [Example E-0053] |  |  | % Inhibition TF-VIIa (100 µM) [1]: 0%; % Inhibition Factor Xa (100 µM) (Human factor Xa): 0%
O=C(Cn1c(-c2cccc(Cl)c2)c(Cl)nc(NCCc2ccc(Cl)cc2)c1=O)NCCc1cccnc1 [Example E-0095] | 2 | 4 | 
N=C(N)c1ccc(CNC(=O)Cn2c(-c3ccc(-c4ccccc4)cc3)c(Cl)nc(NCCc3ccccc3)c2=O)cc1 [1471-71] |  |  | % Inhibition TF-VIIa (30 µM) ([1]; at 30 µM inhibitor): 6%; % Inhibition Factor Xa (30 µM) (Human factor Xa; at 30 µM inhibitor): 0%
O=C(Cn1c(-c2ccc(-c3ccccc3)cc2)c(Cl)nc(NCc2ccncc2)c1=O)NCCc1ccncc1 [Example E-0056] |  |  | % Inhibition TF-VIIa (100 µM) [1]: 0%; % Inhibition Factor Xa (100 µM) (Human factor Xa): 0%
CC(C)Nc1nc(Cl)c(-c2cc(N)cc(C(=O)NCc3ccc(Cl)cc3Cl)c2)n(CC(=O)NCc2ccc(C(=N)N)cc2)c1=O [Example 128-5] |  |  | IC50 [1]: 0.0847 µM; % Inhibition Factor Xa at 100 μM (Human factor Xa): 43% at 100 μM
CC(C)Nc1nc(Cl)c(-c2cc(N)cc(C(=O)NCc3ccc(C(C)(C)C)cc3)c2)n(CC(=O)NCc2ccc(C(=N)N)cc2)c1=O [Example 128-7] |  |  | IC50 [1]: 0.242 µM; inhibition at 100 µM (Human factor Xa): 40%
COc1ccc(CCNC(=O)c2cc(N)cc(-c3c(Cl)nc(NC(C)C)c(=O)n3CC(=O)NCc3ccc(C(=N)N)cc3)c2)cc1 [Example 128-20] |  |  | IC50 [1]: 0.033 µM; inhibition at 100 µM (Human factor Xa): 39%
N=C(N)c1ccc(CNC(=O)Cn2c(-c3ccc(C(=N)N)cc3)c(Cl)nc(NC3CCC3)c2=O)cc1 [Example 113] |  |  | IC50 [1]: 6.19 µM; IC50 (Human factor Xa): 14 µM
C[C@H](Nc1nc(Cl)c(-c2cccc(N)c2)n(CC(=O)NCc2ccc(C(=N)N)cc2)c1=O)C(=O)O [Example 135] |  |  | IC50 [1]: 6.4 µM; % Inhibition Factor Xa at 100 μM (Human factor Xa): 6% at 100 μM
O=C(Cn1c(-c2cccc(Cl)c2)c(Cl)nc(NCCc2cccc(Cl)c2)c1=O)NCCc1cccnc1 [Example E-0080] | 1 | 4 | 
O=C(Cn1c(-c2ccc3c(c2)OCO3)c(Cl)nc(NCCN2CCOCC2)c1=O)NCCc1ccncc1 [Example E-0047] | 0 | 0 | 
COc1ccc(-c2c(Cl)nc(NCc3ccncc3)c(=O)n2CC(=O)NCc2ccc(C(=N)N)cc2)cc1 [1471-35] |  |  | % Inhibition TF-VIIa (30 µM) ([1]; at 30 µM inhibitor): 37%; % Inhibition Factor Xa (30 µM) (Human factor Xa; at 30 µM inhibitor): 22%
Cc1c(Cl)nc(NCCc2cccc(Cl)c2)c(=O)n1CC(=O)NCCc1ccncc1 [Example E-0003] | 0 | 0 | 
N=C(N)NCC#CCNC(=O)Cn1c(-c2ccccc2)cnc(NCCc2ccccc2)c1=O [Example 36] |  |  | % Inhibition TF-VIIa (30 µM) ([1]; at 30 µM inhibitor): 5%; % Inhibition Factor Xa (30 µM) (Human factor Xa; at 30 µM inhibitor): 0%
N=C(N)c1ccc(CNC(=O)C(Cc2ccccc2)n2c(-c3ccccc3)c(Cl)nc(NCCc3ccccc3)c2=O)cc1 (stereo not drawn) [Example 1517-14] |  |  | % Inhibition TF-VIIa (30 µM) ([1]; at 30 µM): 30%; % Inhibition Factor Xa (30 µM) (Human factor Xa; at 30 µM): 0%
N=C(N)c1ccc(C(=O)NCCn2c(-c3cccc(N)c3)c(Cl)nc(NC3CCC3)c2=O)cc1 [Example 136] |  |  | IC50 [1]: 10.7 µM; inhibition at 100 µM (Human factor Xa): 15%
N=C(N)c1ccc(CNC(=O)Cn2c(-c3ccc4c(c3)OCO4)c(Cl)nc(NCCN3CCOCC3)c2=O)cc1 [1471-44] |  |  | % Inhibition TF-VIIa (30 µM) ([1]; at 30 µM inhibitor): 34%; % Inhibition Factor Xa (30 µM) (Human factor Xa; at 30 µM inhibitor): 13%
N=C(N)c1ccc(CNC(=O)Cn2c(-c3ccccc3)c(Cl)nc(NCC3CC3)c2=O)cc1 [Example 1517-43] |  |  | % Inhibition TF-VIIa (30 µM) ([1]; at 30 µM): 25%; % Inhibition Factor Xa (30 µM) (Human factor Xa; at 30 µM): 0%
CC(C)Nc1nc(Cl)c(-c2cc(N)cc(C(=O)NC(C)c3ccccc3)c2)n(CC(=O)NCc2ccc(C(=N)N)cc2)c1=O (stereo not drawn) [Example 128-3] |  |  | IC50 [1]: 0.0082 µM; inhibition at 100 µM (Human factor Xa): 40%
Cc1c(Cl)nc(NCc2ccncc2)c(=O)n1CC(=O)NCCc1ccncc1 [Example E-0008] | 0 | 0 | 
O=C(Cn1c(-c2ccc(-c3ccccc3)cc2)c(Cl)nc(NCc2ccccc2)c1=O)NCCc1ccncc1 [Example E-0109] |  |  | % Inhibition TF-VIIa (100 µM) [1]: 2%; % Inhibition Factor Xa (100 µM) (Human factor Xa): 3%
N=C(N)c1ccc(CNC(=O)Cn2c(-c3ccc(-c4ccccc4)cc3)c(Cl)nc(NCCc3cccnc3)c2=O)cc1 [1471-72] |  |  | % Inhibition TF-VIIa (30 µM) ([1]; at 30 µM inhibitor): 15%; % Inhibition Factor Xa (30 µM) (Human factor Xa; at 30 µM inhibitor): 22%
N=C(N)c1ccc(CNC(=O)Cn2c(-c3ccc(-c4ccccc4)cc3)c(Cl)nc(NCCc3cccnc3)c2=O)cc1 [Example 21] |  |  | % Inhibition TF-VIIa (30 µM) [1]: 8% @ 30; % Inhibition Factor Xa (30 µM) (Human factor Xa): 21% @ 30
O=C(Cn1c(-c2ccc(Cl)cc2)c(Cl)nc(NCCN2CCOCC2)c1=O)NCCc1ccncc1 [Example E-0023] | 0 | 0 | 
COc1ccc(-c2c(Cl)nc(NCc3ccccc3)c(=O)n2CC(=O)NCCc2cccnc2)cc1 [Example E-0098] | 0 | 2 | 

Further lines, with some results ahead:

% Inhibition TF-VIIa (100 µM) ([1]; inhibitor at 100 µM) [%] | % Inhibition Factor Xa (100 µM) (Human factor Xa; inhibitor at 100 µM) [%] | SMILES | also measured
4 | 4 | O=C(Cn1c(-c2cccc(Cl)c2)c(Cl)nc(NCCc2ccc(Cl)cc2)c1=O)NCCc1ccncc1 [Example E-0082] | 
0 | 0 | O=C(Cn1c(Cc2ccccc2)c(Cl)nc(NCCc2ccccc2)c1=O)NCCc1ccncc1 [Example E-0058] | 
1 | 0 | O=C(Cn1c(-c2ccc(Cl)cc2)c(Cl)nc(NCCc2ccccc2)c1=O)NCCc1ccncc1 [Example E-0018] | 
0 | 0 | O=C(Cn1c(-c2ccccc2)c(Cl)nc(NCCc2cccnc2)c1=O)NCCc1ccncc1 [Example E-0013] | 
0 | 0 | O=C(Cn1c(CCc2ccccc2)c(Cl)nc(NCCc2ccc(Cl)cc2)c1=O)NCCc1ccncc1 [Example E-0068] | 
0 | 0 | O=C(Cn1c(Cc2ccccc2)c(Cl)nc(NCCc2cccc(Cl)c2)c1=O)NCCc1ccncc1 [Example E-0059] | 
0 | 0 | O=C(Cn1c(-c2ccc3c(c2)OCO3)c(Cl)nc(NCCc2ccccc2)c1=O)NCCc1ccncc1 [Example E-0042] | 
2 | 3 | COc1ccc(-c2c(Cl)nc(NCCc3cccc(Cl)c3)c(=O)n2CC(=O)NCCc2ccncc2)cc1 [Example E-0103] | 
0 | 0 | O=C(Cn1c(Cc2ccccc2)c(Cl)nc(NCCc2ccc(Cl)cc2)c1=O)NCCc1ccncc1 [Example E-0060] | 
0 | 0 | O=C(Cn1c(-c2ccccc2)c(Cl)nc(NCc2ccncc2)c1=O)NCCc1ccncc1 [Example E-0016] | 
3 | 4 | O=C(Cn1c(-c2cccc(Cl)c2)c(Cl)nc(NCCc2ccccc2)c1=O)NCCc1cccnc1 [Example E-0089] | 
0 | 0 | O=C(Cn1c(-c2ccccc2)c(Cl)nc(NCCc2ccc(Cl)cc2)c1=O)NCCc1ccncc1 [Example E-0012] | 
0 | 0 | O=C(Cn1c(-c2ccc(Cl)cc2)c(Cl)nc(NCCc2ccncc2)c1=O)NCCc1ccncc1 [Example E-0030] | 
0 | 3 | O=C(Cn1c(-c2cccc(Cl)c2)c(Cl)nc(NCCc2ccccc2)c1=O)NCCc1ccncc1 [Example E-0088] | 
0 | 0 | O=C(Cn1c(-c2ccccc2)c(Cl)nc(NCCc2ccccc2)c1=O)NCCc1ccncc1 [Example E-0010] | 
0 | 0 | O=C(Cn1c(CCc2ccccc2)c(Cl)nc(NCCc2cccc(Cl)c2)c1=O)NCCc1ccncc1 [Example E-0067] | 
0 | 0 | O=C(Cn1c(-c2ccccc2)c(Cl)nc(NCCN2CCOCC2)c1=O)NCCc1ccncc1 [Example E-0015] | 
0 | 0 | COc1ccc(-c2c(Cl)nc(NCCc3ccc(Cl)cc3)c(=O)n2CC(=O)NCCc2ccncc2)cc1 [Example E-0036] | 

Reference: US6908919B2, “Substituted polycyclic aryl and heteroaryl pyrazinones useful for selective inhibition of the coagulation cascade” (Pharmacia Corporation, priority 1999, dated 2005)
